Columns and labels:
[1] = system: iPS cells; assay: Alkaline phosphatase staining of iPS cells; format: cell-based, mouse; settings: 72 hours, control group = 100%
Experimental: The protocol shown in experiment A was repeated, while an iPS cell (received from Riken Research Center, Japan) was cultured at step (4).
The protocol shown in experiment C was repeated, while an iPS cell (received from Riken Research Center, Japan) was cultured at step (2).
Alkaline phosphatase is a marker protein of stem cells. The activity measured by staining could be used to determine if BP can effectively maintain the self-renewal and/or pluripotency of stem cells.
An experimental group medium (BP5, BP10, BP20 or BP40), a LIF-containing medium (without BP) and a control group medium (without BP) were used respectively to culture ES cells in a 6-well culture dish with an initial density of 1×10^4 per well for 72 hours. The medium was removed and the cells were washed two times with PBS. Next, PBS was removed, and 1 ml of 80% ethanol was added into each well to perform the fixation at 4° C. for 2 to 24 hours. Next, ethanol was removed, and then the cells were washed one time with distilled water. The distilled water was added again to soak the cells for 2 to 3 minutes, and then be removed. Next, the cells were soaked with a Tris-HCl buffer (100 mM, pH 8.2 to 8.5) at room temperature for 5 minutes, and then, the buffer was removed. Next, a Leukocyte Alkaline Phosphatase kit (Vector) was used to perform the staining for 20 to 30 minutes, and then the Alkaline Phosphatase Substrate working solution was removed, the cells were soaked and washed by Tris-HCl buffer (100 mM, pH 8.2 to 8.5) and then be observed by a fluorescent microscope to count the number of the AP-positive clones. The undifferentiated ES cells with a higher activity show a red color, while the differentiated ES cells with a lower activity show a weak red color or are even colorless.
By using the above culture conditions, an experimental group medium (BP5, BP10, BP20 or BP40), a LIF-containing medium (without BP), and a control group medium (without BP) were used respectively to culture iPS cells. Then, the staining of iPS cells was performed by the steps described above. The undifferentiated iPS cells with a higher activity show a red color and the differentiated iPS cells with a lower activity show a weak red color or are even colorless.

[2] = system: IL11; assay: Real-time PCR, cytokine gene IL11 in ES cells; format: cell-based, mouse; settings: for IL11 mRNA expression level: ES cells, control group = 100%
Experimental: An experimental group medium (BP5, BP10, BP20 or BP40) and a control group medium (without BP) were added respectively to perform the following steps. ES cells were cultured with an initial density of 1×10^4 per well in a 6-well culture dish. The medium was removed until the cells growth to be about 70 to 80% confluence, and then 1 ml TRIzol (Invitrogen) was added into each well. The cells were incubated for 5 minutes, and then was scraped by a spatula and placed into a 1.5 ml microtube to be lysed adequately. Chloroform (0.2 ml) was added into the microtubes. The mixture was shaken up and down for 15 seconds, and then incubated at room temperature for 2 to 3 minutes. Thereafter, the mixture was centrifuged at 12000 rpm at 4° C. for 15 minutes, and the supernatant was removed into another 1.5 ml microtube and isopropanol (0.5 ml) was added into the microtube with well mixing. The mixture was incubated at room temperature for 10 minutes and then centrifuged at 12000 rpm at 4° C. for 10 minutes. The supernatant was then removed. One ml of 70% ethanol containing DEPC.H2O was used to wash the remaining sediment. The sediment was centrifuged at 7500 rpm at 4° C. for 5 minutes. The supernatant was removed. The sediment was dried by vacuum suction. The dried samples were dissolved in about 0.01 to 0.02 ml of DEPC.H2O to obtain the experimental group RNA and control group RNA. Both groups were stored at −80° C.
The OD value of RNA samples in both groups obtained from the above Experiment I were measured at a wavelength of 260 nm (RNA: OD260=1 for a 40 μg/mL solution). Each RNA sample (2 μl) was added with RNA-free water until the volume of the sample reached 10 μl. Two μl oligo (dT) (100 μg/ml) was added into each sample, and the samples were incubated at 65° C. for 5 minutes. Then, the samples were immediately placed on ice and spun down. Next, 6.5 μl of a reaction solution [4 μl of 5× buffer+1 μl of 0.1 M DTT+1 μl of RNase out+0.5 μl of SSIII (Invitrogen)] was added into each of the samples, and the samples were incubated at 50° C. for about 30 to 60 minutes and at 75° C. for 15 minutes to obtain the experimental group cDNA and control group cDNA. Both groups were stored at −80° C.
This experiment was used to detect the expression levels of ES cell-related genes, i.e., Oct4 and Sox2, etc. First, 4 μl of the experimental group cDNA or control group cDNA was added into each well of a 96-well micro-reaction plate, and mixed with 6 μl of a reaction solution [0.5 μl of 6 μM forward primer+0.5 μl of 6 μM reverse primer+5 μl of SYBR Green PCR Master mix (Roche)], wherein the SYBR Green PCR Master mix included the reagents needed for Q-PCR, such as dNTPs, MgCl, Taq DNA polymerase and 2×SYBR® Green I solution. […] The cycle threshold (CT) values were measured. […]

[3] = BP10 medium (about 10 μg BP/ml)

Compound	AP-positive clones ([1]; BP5 medium (about 5 μg BP/ml))	AP-positive clones [1, 3]	AP-positive clones ([1]; BP20 medium (about 20 μg BP/ml))	AP-positive clones ([1]; BP40 medium (about 40 μg BP/ml))	IL11 mRNA expression level ([2]; BP5 medium (about 5 μg BP/ml))	IL11 mRNA expression level [2, 3]	mRNA expression level of IL-11 ([2]; BP-containing ES cell medium, result in words)	AP-positive clones ([1]; LIF-containing medium (LIF 4 ng/ml, without BP))	IL11 mRNA expression level ([2]; LIF-containing medium (LIF 4 ng/ml))
CCCC=C1OC(=O)c2ccccc21 [BP, n-butylidenephthalide]	85%	128%	192%	129%	93%	191%	significantly up-regulated	–	–
LIF: multifunctional cell factor used to maintain pluripotency of stem cells; LIF-containing medium (4 ng/ml, without BP) as comparison	–	–	–	–	–	–	–	226%	99%
